# According to patent US7144862B2, “Orally administered peptides to ameliorate atherosclerosis” (The Regents of the University of California, priority 2000, dated 2006):
# Assays:
# [1] = Surface pressure measurements: monolayer exclusion pressure; format: physicochemical; details: EPC monolayer; reproducibility ± 1 dyn/cm
# Method: An insoluble monolayer of egg phosphatidylcholine (EPC) was spread at the air-water interface in a Teflon dish at room temperature to give an initial surface pressure (πi) in the range of 5–45 dyn/cm. A solution of peptides in PBS containing 1.5M Gdn. HCl was carefully injected in to the subphase to give a final concentration of 50 μg/dL. The Gdn. HCl was diluted in the subphase to a final concentration of ≦1 mM to allow the peptides to renature. The subphase was stirred continuously and the increase in EPC monolayer surface pressure (Δπ) was recorded until a steady state value was obtained. The value of the initial surface pressure (πi) at which the peptides no longer penetrate the EYPC monolayer i.e. the exclusion pressure (πe), was calculated by extrapolating the πi vs Δπ linear regression fit to Δπ=0 dyn/cm.
# [2] = system: human artery wall cell cocultures; assay: LDL-induced monocyte chemotactic activity with the homologous series of peptides (Example 3); format: cell-based; details: peptide at 100 μg/ml, LDL 250 μg protein/ml, 8 h
# Method: Microtitre plates were treated with 0.1% gelatin at 37° C. overnight. HASMC were added at a confluent density of 1×10^5 cells/cm^2. […] HAEC were subsequently added at 2×10^5 cells/cm^2 and were allowed to grow, forming a complete monolayer of confluent HAEC in two days. In all experiments, HAEC and autologous HASMC (from the same donor) were used at passage levels of four to six. […] The cocultures were treated with native LDL(250 μg protein/ml) or presence of HDL (350 μg protein/ml) or peptides for 8 h.
# [3] = Right angle light scattering, dissolution of EPC MLVs; format: physicochemical; details: 105 μM EPC, equimolar peptide, 25° C., 30 min
# Method: EPC MLVs were prepared by evaporating a solution of EPC (Avanti Polar, AL) under nitrogen and hydrating the lipid film with phosphate-buffered saline (pH 7.4). […] Turbidity clarification was monitored for 30 min.
# [4] = system: C57BL/6J mice fed an atherogenic diet; assay: Aortic lesion formation, daily intraperitoneal injection for 16 weeks, atherogenic diet; format: in vivo, mouse; details: 5F 20 μg or MoAI 50 μg daily i.p.
# Method: The livers were removed and weighed.
# Histological evaluations were performed according to the method of Paigen et al. (Paigen et al. (1990) Arteriosclerosis 10: 316–323) with some modifications. Briefly, hearts were fixed for at least one week in the phosphate-buffered formaldehyde solution. After removing the lower ⅔ of the hearts, the remaining tissue was frozen in OCT medium (Tissue-Tek, Miles Inc., Elkhart, Ind.) and sectioned in a cryostat at −20° C. Alternate 20 μm sections were saved on slides, and observed for the beginning of the aortic root. Sections were then collected for an additional 600 μm, or until the aortic cross-section was rounded and the valve cusps were no longer evident. Slides were stained with Oil Red O, and counterstained with hematoxylin. Stained lesion cross-sectional areas were measured in consecutive slides 80 μm apart by image analysis (SigmaScan Pro, SPSS Scientific, Chicago, Ill.), and the average lesion area was determined for each aortic sinus over the 400 μm length (five slides) providing the greatest mean lesion area.
# [5] = mouse, in vivo, ip
# Method: (§2) Mice were acquired at six weeks of age, and randomized into groups of 20, except that a negative control group of 10 received no treatments and was given standard rodent chow. At eight weeks of age, the treatment groups were placed on a modified Thomas-Hartroft atherogenic diet (#TD88051; Teklad, Madison, Wis.), and injections were begun. […] Animals were injected intraperitoneally daily for 16 weeks, including weekends and holidays.
# (§3) At the end of the study (week 16), at the last bleeding, the heart and the liver were excised. […] The livers were removed and weighed.
# [6] = Circular dichroism, percent helicity; format: physicochemical
# Method: Briefly, spectra were obtained using a cell with a 0.1 cm path length and measurements were taken every nm from 260 nm to 190 nm at 25° C. All the CD spectra were signal averaged by adding four scans, base line corrected and smoothed. Peptide solutions in PBS, pH 7.4, were used at a concentration of 11 μM. Peptide-DMPC complexes (1:20 mol:mol) were used to determine the effect of lipid binding on the helicity of these peptides. These complexes were prepared by adding the appropriate volume of peptide solution to DMPC multilamellar vesicles. DMPC multilamellar vesicles were prepared as follows: A known amount of lipid was dissolved in ethanol and the solvent was removed by evaporating slowly under a thin stream of nitrogen. Residual solvent was removed by storing the lipid film under vacuum overnight. An appropriate volume of PBS, pH 7.4 was added to the thin lipid film to give the required final concentration of DMPC.
# [7] = DSC, bilayer to hexagonal phase transition of DiPoPE; format: physicochemical; details: heating scan rate 37°/h
# Method: (§1) A known amount of phospholipid was dissolved in chloroform. For one set of samples, peptide was dissolved in methanol and added to a solution of DiPoPE in chloroforn/methanol (2:1, v:v). For both, pure lipid samples and the organic solutions of lipid and peptide, solvent was removed under a slow stream of nitrogen. Residual solvent was removed under vacuum. […] For DMPC, four consecutive scans with a 60 minute equilibration time between scans were taken. DSC thermograms were analyzed using the software provided by MicroCal Inc., Amherst, Mass., and Origin, version 5.0.
# In the current study we prepared the peptide-lipid mixtures in two ways. One was by adding the peptide in organic solvent to the lipid in organic solvent followed by depositing the material as a film and subsequently hydrating with buffer. In the other method, the peptide and lipid were mixed after each was hydrated separately. If the mixture comes to equilibrium prior to the DSC analysis, it should not matter how the peptide and lipid are originally mixed. However, membrane systems can equilibrate slowly, in which case there may be more peptide in the lipid when it was incorporated at high concentrations into the lipid film.
# [8] = Survival, toxicity, body and liver weights after 16 weeks of injection
# Method: as §2, §3
# [9] = mouse, in vivo
# Method: The 5F peptide, MoAI, and human apo A-I were labeled with ^125I by the method of Bilheimer et al. (1972) Biochim. Biophys. Acta 260: 212–221. Mice were placed on a modified Thomas-Hartroft atherogenic diet (#TD88051; Teklad, Madison, Wis.) for four weeks at which time daily intraperitoneal injections of peptide or protein dissolved in 200 μl phosphate-buffered saline (PBS) were begun. Animals injected with MoAI or human apo A-I received 50 μg per animal; those injected with 5F received 20 μg. Animals were not fasted for the kinetic studies and blood samples were taken under xylazine:ketamine anesthesia from the retro-orbital sinus at 15, 30, and 45 minutes, and 1, 1.5, 2, 3, 4, 6, 8, 12, and 24 hours following injection. Each animal provided three blood samples at different time points (all retro-orbital and alternating eyes), and at least three samples were collected (from different animals) at each time point. Samples were collected into heparinized capillary tubes, then placed in microcentrifuge tubes; the plasma was separated by centrifugation. Duplicate 10 μl aliquots of each sample were taken for radioactivity determination, using gamma counting (Cobra; Packard Instruments, Downers Grove, Ill.) for 10 minutes per sample. Total plasma volume was calculated as 4.2% body weight. Each sample was expressed as percent of injected CPM in total plasma. Free ^125I was determined by trichloroacetic acid (TCA) precipitation (1 ml of 10% TCA per 10 μl plasma sample). Fitting to the kinetic model was done using all data points, rather than averages at each time point (PKAnalyst, MicroMath Scientific Software, Salt Lake City, Utah).
# Treatment groups were compared by two-tailed t-tests or one way analysis of variance (where the data were normally distributed), or by one way analysis of variance on ranks (SigmaStat; SPSS Science, Chicago, Ill.). Kinetics of peptide or protein turnover were analyzed by fitting to a first order one-compartment kinetic model assuming non-equal input and output rates (PKAnalyst; MicroMath Scientific Software, Salt Lake City, Utah).
# [10] = DSC, chain melting transition of DMPC; format: physicochemical; details: DMPC/peptide 100:1 (mol/mol)
# Method: as §1
# The effect of these 18A analogues on the chain melting transition of multilamellar vesicles of DMPC was studied by DSC using peptide-lipid mixtures at 100:1 lipid/peptide molar ratio.
# [11] = after 16 weeks, atherogenic diet, daily i.p., mean ± SEM
substance,measurement,setting,value
"Ac-DWLKAFYDKVFEKFKEFF-NH2 [Peptide 5F, Ac-D-W-L-K-A-F-Y-D-K-V-F-E-K-F-K-E-F-F-NH2]",Monolayer Exclusion Pressure(πc),[1],45 dyn/cm
same,inhibition of LDL-induced monocyte chemotaxis,[2],significant and similar inhibition
same,clarification of EPC MLVs,[3],clarified the EPC MLVs to a similar extents
same,mean lesion cross-sectional area compared with PBS-injected animals,[4],significantly lower mean lesion area
same,toxicity,[5],No toxicity
same,Percent Helicity PBS,[6]; 11 μM peptide in PBS,55%
same,Percent Helicity DMPC,"[6]; 11 μM peptide, Peptide: DMPC 1:20 (mol/mol)",76%
same,shift in TH of DiPoPE with mol fraction of peptide,[7],linear increase in TH
same,Body Weight,[8]; [11],21.60 ± 0.28 g
same,Liver Weight,[8]; [11],1.61 ± 0.04 g
same,Liver: Body (percentage),[8]; [11],7.46 ± 0.23%
same,mice died from unexplained causes,"[8]; during the prolonged diet studies, groups of 20",one
same,T½,"[9]; C57BL/6J, ip",6.22 h
same,Max. % in plasma,[9],14.29%
same,TCM(° C.),"[10]; 1.5 mM DMPC, chain melting transition temperature",23.2 °C
same,ΔHCM (kcals/mol),[10]; enthalpy of the transition,4.9 kcals/mol
same,ΔT1/2 (° C.),[10]; width at half maximum of the transition,0.5 °C
